Data published in ChEMBL document CHEMBL1909046, “DrugMatrix in vitro pharmacology data”.

What was measured:
[1] = molecular target: T1, Alpha-1D adrenergic receptor (Homo sapiens, UniProt P25100); type: cell membranes, HEK293, Membrane; also: in other assays of this panel Not Active means under 50% inhibition at 10 µM
T1 sequence (P25100 whole entry): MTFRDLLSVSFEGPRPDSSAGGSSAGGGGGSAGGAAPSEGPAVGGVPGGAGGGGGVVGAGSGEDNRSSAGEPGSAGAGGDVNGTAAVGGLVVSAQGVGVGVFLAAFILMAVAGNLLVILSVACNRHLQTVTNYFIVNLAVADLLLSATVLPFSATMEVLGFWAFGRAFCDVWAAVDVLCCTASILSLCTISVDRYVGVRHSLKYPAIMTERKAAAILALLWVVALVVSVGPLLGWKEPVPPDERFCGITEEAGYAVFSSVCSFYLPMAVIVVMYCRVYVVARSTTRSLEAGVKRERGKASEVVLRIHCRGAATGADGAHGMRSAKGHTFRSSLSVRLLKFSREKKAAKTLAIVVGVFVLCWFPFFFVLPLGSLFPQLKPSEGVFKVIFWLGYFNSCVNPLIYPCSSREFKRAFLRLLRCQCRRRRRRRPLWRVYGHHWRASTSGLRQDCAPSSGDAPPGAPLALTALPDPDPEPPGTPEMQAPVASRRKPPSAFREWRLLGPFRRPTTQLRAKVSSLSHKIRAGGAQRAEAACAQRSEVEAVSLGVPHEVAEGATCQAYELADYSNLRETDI

[2] = molecular target: 5-hydroxytryptamine receptor 6 (Homo sapiens, UniProt P50406); type: cell membranes, HeLa, Membrane; conditions: hela; also: in other assays of this panel Not Active means under 50% inhibition at 10 µM
Chain of 5-hydroxytryptamine receptor 6 (P50406 whole entry): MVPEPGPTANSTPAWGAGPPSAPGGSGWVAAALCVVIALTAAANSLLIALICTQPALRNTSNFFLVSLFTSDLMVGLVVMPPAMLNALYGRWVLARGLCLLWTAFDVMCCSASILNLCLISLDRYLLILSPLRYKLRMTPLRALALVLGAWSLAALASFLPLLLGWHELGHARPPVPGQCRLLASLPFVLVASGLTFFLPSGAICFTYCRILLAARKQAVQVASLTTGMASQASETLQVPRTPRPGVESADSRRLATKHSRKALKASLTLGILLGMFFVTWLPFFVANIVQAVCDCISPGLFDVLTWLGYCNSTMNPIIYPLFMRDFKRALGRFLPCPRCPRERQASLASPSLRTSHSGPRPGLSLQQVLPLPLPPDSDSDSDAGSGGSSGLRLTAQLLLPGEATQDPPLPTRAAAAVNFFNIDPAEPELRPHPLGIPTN

[3] = DRUGMATRIX: Glutamate, NMDA, Phencyclidine radioligand binding (ligand: [3H] TCP); type: cell membranes, Rattus norvegicus, Wistar, Cerebral cortex, Membrane; conditions: Not Active = under 50% inhibition at 10 µM
Glycine receptor = Glycine receptor (Rattus norvegicus, UniProt P22771+P24524+P07727+P20781); type: cell membranes, Wistar, Spinal cord, Membrane; also: in other assays of this panel Not Active means under 50% inhibition at 10 µM
[4] = molecular target: T2, Amine oxidase [flavin-containing] A (Homo sapiens, UniProt P21397); assay: DRUGMATRIX: Monoamine Oxidase MAO-A enzyme inhibition (substrate: Kynuramine); set-up: species or system BTI-TN-5B1-4; conditions: bti-tn-5b1-4; Not Active = under 50% inhibition at 10 µM
T2 sequence (P21397 whole entry): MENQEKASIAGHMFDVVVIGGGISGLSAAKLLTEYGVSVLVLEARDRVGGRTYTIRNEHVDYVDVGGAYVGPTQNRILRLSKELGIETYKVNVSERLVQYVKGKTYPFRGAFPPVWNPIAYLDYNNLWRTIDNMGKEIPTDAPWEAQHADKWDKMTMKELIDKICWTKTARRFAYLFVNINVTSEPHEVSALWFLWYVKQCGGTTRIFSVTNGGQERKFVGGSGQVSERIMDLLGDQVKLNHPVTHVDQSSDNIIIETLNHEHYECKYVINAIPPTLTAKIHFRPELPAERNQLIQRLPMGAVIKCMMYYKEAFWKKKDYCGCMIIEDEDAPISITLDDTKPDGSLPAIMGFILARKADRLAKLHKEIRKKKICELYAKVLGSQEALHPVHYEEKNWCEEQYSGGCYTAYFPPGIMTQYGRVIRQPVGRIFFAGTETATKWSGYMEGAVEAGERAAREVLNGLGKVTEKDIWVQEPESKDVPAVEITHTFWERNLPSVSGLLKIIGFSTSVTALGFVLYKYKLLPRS

[5] = DRUGMATRIX: Phosphodiesterase PDE3 enzyme inhibition (substrate: [3H]cAMP + cAMP); type: tissue-based, Homo sapiens; conditions: platelet; Not Active = under 50% inhibition at 10 µM
[6] = molecular target: cGMP-specific 3',5'-cyclic phosphodiesterase (Homo sapiens, UniProt O76074); assay: DRUGMATRIX: Phosphodiesterase PDE5 enzyme inhibition (substrate: [3H]cGMP + cGMP); type: tissue-based; conditions: platelet; Not Active = under 50% inhibition at 10 µM
[7] = molecular target: Mitogen-activated protein kinase 3 (Homo sapiens, UniProt P27361); assay: DRUGMATRIX: Protein Serine/Threonine Kinase, ERK1 enzyme inhibition (substrate: Myelin Basic Protein); set-up: species or system Escherichia coli; conditions: Not Active = under 50% inhibition at 10 µM
Chain of Mitogen-activated protein kinase 3 (P27361 whole entry): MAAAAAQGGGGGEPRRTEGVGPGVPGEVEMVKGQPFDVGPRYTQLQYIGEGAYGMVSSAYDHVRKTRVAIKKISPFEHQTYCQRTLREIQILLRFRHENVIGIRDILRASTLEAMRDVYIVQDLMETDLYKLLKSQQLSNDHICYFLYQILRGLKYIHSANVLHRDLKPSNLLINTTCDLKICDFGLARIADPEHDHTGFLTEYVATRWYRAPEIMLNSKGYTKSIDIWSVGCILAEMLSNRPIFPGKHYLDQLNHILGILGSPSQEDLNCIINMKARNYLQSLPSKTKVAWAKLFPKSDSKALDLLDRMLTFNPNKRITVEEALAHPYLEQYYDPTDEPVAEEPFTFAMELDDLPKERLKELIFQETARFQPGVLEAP

Row | Structure (SMILES) | IC50 ([1]; hek293) | IC50 [2] | IC50 [3] | Ki [3] | IC50 (Glycine receptor) | IC50 [4] | IC50 [5] | Ki [5] | IC50 [6] | IC50 [7] | IC50 ([1]; read-out: IC50) [nM] | Ki ([1]; read-out: Ki) [nM]
1 | CCC(C)n1ncn(-c2ccc(N3CCN(c4ccc(OCC5COC(Cn6cncn6)(c6ccc(Cl)cc6Cl)O5)cc4)CC3)cc2)c1=O (stereo unspecified) [ITRACONAZOLE] | Not Active | Not Active | Not Active | Not Active | Not Active | Not Active | Not Active | Not Active | Not Active | Not Active |  | 
2 | O=c1oc2ccccc2c(O)c1Cc1c(O)c2ccccc2oc1=O [DICUMAROL] | Not Active | Not Active | Not Active | Not Active | Not Active | Not Active | Not Active | Not Active | Not Active | Not Active |  | 
3 | Cc1onc(O)c1CC(N)C(=O)O (racemic) [(R,S)-AMPA] | Not Active | Not Active | Not Active | Not Active | Not Active | Not Active | Not Active | Not Active | Not Active | Not Active |  | 
4 | CC1=C2C(=CO[C@H](C)[C@H]2C)C(O)=C(C(=O)O)C1=O [CITRININ] | Not Active | Not Active | Not Active | Not Active | Not Active | Not Active | Not Active | Not Active | Not Active | Not Active |  | 
5 | Nc1nc2c(ncn2COCCO)c(=O)[nH]1 [ACYCLOVIR] | Not Active | Not Active | Not Active | Not Active | Not Active | Not Active | Not Active | Not Active | Not Active | Not Active |  | 
6 | O=C1CC[C@@H](N2C(=O)c3ccccc3C2=O)C(=O)N1 | Not Active | Not Active | Not Active | Not Active | Not Active | Not Active | Not Active | Not Active | Not Active | Not Active |  | 
7 | CC(C)C(Br)C(=O)NC(N)=O (stereo unspecified) [BROMISOVALUM] | Not Active | Not Active | Not Active | Not Active | Not Active | Not Active | Not Active | Not Active | Not Active | Not Active |  | 
8 | Cc1ccccc1N1C(=O)c2cc(S(N)(=O)=O)c(Cl)cc2NC1C (stereo unspecified) [METOLAZONE] | Not Active | Not Active | Not Active | Not Active | Not Active | Not Active | Not Active | Not Active | Not Active | Not Active |  | 
9 | C1CCC(C(CC2CCCCN2)C2CCCCC2)CC1 (stereo unspecified) [PERHEXILINE] | Not Active | Not Active | Not Active | Not Active | Not Active | Not Active | Not Active | Not Active | Not Active | Not Active |  | 
10 | CC(C)CN(C[C@@H](O)[C@H](Cc1ccccc1)NC(=O)O[C@H]1CCOC1)S(=O)(=O)c1ccc(N)cc1 | Not Active | Not Active | Not Active | Not Active | Not Active | Not Active | Not Active | Not Active | Not Active | Not Active |  | 
11 | Cc1ccc2cc3c(ccc4ccccc43)c3c2c1CC3 [3-METHYLCHOLANTHRENE] | Not Active | Not Active | Not Active | Not Active | Not Active | Not Active | Not Active | Not Active | Not Active | Not Active |  | 
12 | Nc1nc2c(ncn2CCC(CO)CO)c(=O)[nH]1 [PENCICLOVIR] | Not Active | Not Active | Not Active | Not Active | Not Active | Not Active | Not Active | Not Active | Not Active | Not Active |  | 
13 | CN(C)C(=O)Oc1cc(OC(=O)N(C)C)cc(C(O)CNC(C)(C)C)c1 (stereo unspecified) [BAMBUTEROL] | Not Active | Not Active | Not Active | Not Active | Not Active | Not Active | Not Active | Not Active | Not Active | Not Active |  | 
14 | Nc1nc(N)nc(-c2cc(Cl)ccc2Cl)n1.O=C(O)/C=C\C(=O)O [IRSOGLADINE MALEATE] | Not Active | Not Active | Not Active | Not Active | Not Active | Not Active | Not Active | Not Active | Not Active | Not Active |  | 
15 | Cc1ccc(-c2cc(C(F)(F)F)nn2-c2ccc(S(N)(=O)=O)cc2)cc1 [CELECOXIB] | Not Active | Not Active | Not Active | Not Active | Not Active | Not Active | Not Active | Not Active | Not Active | Not Active |  | 
16 | CCC1(c2ccc(N)cc2)CCC(=O)NC1=O (stereo unspecified) [AMINOGLUTETHIMIDE] | Not Active | Not Active | Not Active | Not Active | Not Active | Not Active | Not Active | Not Active | Not Active | Not Active |  | 
17 | Cc1ccc(/N=C/N(C)/C=N/c2ccc(C)cc2C)c(C)c1 [AMITRAZ] | Not Active | Not Active | Not Active | Not Active | Not Active | Not Active | Not Active | Not Active | Not Active | Not Active |  | 
18 | C[C@H](CS)C(=O)N1CCC[C@H]1C(=O)O [CAPTOPRIL] | Not Active | Not Active | Not Active | Not Active | Not Active | Not Active | Not Active | Not Active | Not Active | Not Active |  | 
19 | Clc1cccc(Cl)c1NC1=NCCN1 [CLONIDINE] |  | Not Active | Not Active | Not Active | Not Active | Not Active | Not Active | Not Active | Not Active | Not Active | 1210 | 595
20 | CCCCN1CCCC[C@H]1C(=O)Nc1c(C)cccc1C [LEVOBUPIVACAINE] | Not Active | Not Active | Not Active | Not Active | Not Active | Not Active | Not Active | Not Active | Not Active | Not Active |  | 
21 | OC(Cn1cncn1)(Cn1cncn1)c1ccc(F)cc1F [FLUCONAZOLE] | Not Active | Not Active | Not Active | Not Active | Not Active | Not Active | Not Active | Not Active | Not Active | Not Active |  | 
22 | CCCC1O[C@@H]2C[C@H]3[C@@H]4CCC5=CC(=O)C=C[C@]5(C)[C@H]4[C@@H](O)C[C@]3(C)[C@]2(C(=O)CO)O1 (stereo partly specified) [BUDESONIDE] | Not Active | Not Active | Not Active | Not Active | Not Active | Not Active | Not Active | Not Active | Not Active | Not Active |  | 
